These results are taken from publication PMC9917184, “Synthesis and Biological Evaluation of Potential Oncoimmunomodulator Agents” (International Journal of Molecular Sciences, 2023).

For assay [1], the system named is c-Myc. In words: Immunofluorescence microscopy of c-Myc in MCF-7. The class given is cell-based, human. As to conditions: MCF-7, 24 h of treatment. The source says:
We also observed the effect of triazole derivatives 3, 5 and 7 on both targets in MCF-7 by immunofluorescence microscopy (see Figure 2). We stained both targets with anti-PD-L1 conjugated to AlexaFluor®647 (red in Figure 2), as well as anti-c-Myc conjugated to fluorescein (green in Figure 2), to determine the amount of both targets. The nucleus was stained with Hoechst (blue in Figure 2).
We observed that in the DMSO control, c-Myc was located in the nucleus of the cell and the nucleus membrane nearby, and PD-L1 was preferentially positioned in the membrane or cytosol, favoring the contact between surrounding cells.
For immunofluorescence microscopy of the microtubule network, […] cells were plated on cover glass and incubated with the selected compounds. Cells were then fixed in 4% formaldehyde (in PBS pH 7.4) for 20 min at room temperature and permeabilized with PBS-Triton X-100 0.5% for 1 min at room temperature. Direct immunostaining was carried out for 1 h at room temperature with FITC Mouse monoclonal Anti-c-Myc (ab223913) and Alexa Fluor® 647 Rabbit monoclonal Anti-PD-L1 (ab215251). Then, cells were washed in PBS, and cover glasses were mounted with a drop of ProLong® antifade solution (Invitrogen). The cytoskeleton was imaged by a confocal laser scanning microscope (CLSM) Leica SP5 with a Leica inverted microscope, equipped with 20x objective. Each image was recorded with the CLSM’s spectral mode selecting specific domains of the emission spectrum. The FITC fluorophore was excited at 488 nm with an argon laser, and its fluorescence emission was collected between 496 nm and 535 nm.

The test system of assay [2] is PD-L1 gene expression. In words: PD-L1 gene expression by RT-qPCR in MCF-7. The class given is cell-based, human. To be noted: MCF-7, 100 µM, 48 h, control = 100. The method, then:
We also studied the effect of compounds 3, 5, and 7 on both c-Myc and PD-L1 gene expression by RT-qPCR. For this study, we treated MCF-7 cells with 100 µM of the abovementioned compounds, and DMSO was used as a negative control and BMS-8 as a reference compound. After 48 h, cells were lysated, and after the extraction of their mRNA, a RT-pPCR assay was performed as described in the Experimental section.
MCF-7 cells at 70–80% confluence were collected, and 1.5 × 10^5 cells were placed in a six-well plate in 1.5 mL of medium. After 24h, cells were incubated with the corresponding compounds for 48 h. Cells were collected, and the total cellular RNA from MCF-7 cells was isolated using the Ambion RNA extraction kit according to the manufacturer’s instructions. The cDNA was synthesized by MMLV-RT with […] of extracted RNA and oligo(dT)15 according to the manufacturer’s instructions. Genes were amplified by a thermal cycler and StepOnePlus™ TaqMan® probes. TaqMan® Gene Expression Master Mix Fast containing the appropriate buffer for the amplification conditions, dNTPs, thermostable DNA polymerase enzymes, and a passive reference probe was used. To amplify each of the genes, the predesigned primers sold by Life Technologies TaqMan® Gene Expression Assays, Hs99999903-m1 (β-actin), Hs00153408-m1 (c-Myc), and Hs00204257-m1, (PD-L1) were used.

Assay [3] concerns the target T1, PD-L1 (Homo sapiens, UniProt Q9NZQ7). The assay can be described thus: Total PD-L1 relative quantification by flow cytometry in cancer cell lines. To be noted: 24 h, total PD-L1 relative to negative control (DMSO). It counts as cell-based. The arrangement: Alexa Fluor® 647 Rabbit monoclonal Anti-PD-L1 (ab215251); endogenous in cells; host or cells: HT-29.
The target in assay [4] is T1, PD-L1. Described as above. The class given is cell-based. The arrangement: Alexa Fluor® 647 Rabbit monoclonal Anti-PD-L1 (ab215251); endogenous in cells; host or cells: HT-29.
The test system of assay [5] is c-Myc. The assay can be described thus: Total c-Myc relative quantification by flow cytometry in cancer cell lines. The class given is cell-based, human.

T1 sequence (Q9NZQ7 19-290): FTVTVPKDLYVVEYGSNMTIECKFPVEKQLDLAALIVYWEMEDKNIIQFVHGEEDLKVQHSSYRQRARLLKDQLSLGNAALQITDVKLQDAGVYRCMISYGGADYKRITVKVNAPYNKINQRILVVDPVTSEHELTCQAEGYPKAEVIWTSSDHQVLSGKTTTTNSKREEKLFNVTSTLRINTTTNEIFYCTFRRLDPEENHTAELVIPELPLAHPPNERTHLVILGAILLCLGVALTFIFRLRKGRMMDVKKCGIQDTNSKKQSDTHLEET

Regarding `COc1ccc(C(OCCc2ccc(CCn3cc(-c4cccc(Br)c4)nn3)cc2)(c2ccccc2)c2ccc(OC)cc2)cc1` [Compound 5, 1-(4-(2-(bis(4-methoxyphenyl)(phenyl)methoxy)ethyl)phenethyl)-4-(3-bromophenyl)-1H-1,2,3-triazole], in assay [1], the “c-Myc localisation (confocal images)” value is “aggregated around the nucleus membrane”. Also, the “% PD-L1 gene expression” value in assay [2] was 21 ± 8%. The remaining activity at 100 µM in assay [3] (A549, A-549, 100 µM) was determined as 70 ± 16%; in assay [3] (HT-29, 100 µM), 38 ± 1%; in assay [3] (MCF7, MCF-7, 100 µM), 87 ± 1%.
For `COc1ccc(C(OCCc2ccc(CCn3cc(-c4ccc(Br)cc4)nn3)cc2)(c2ccccc2)c2ccc(OC)cc2)cc1` [Compound 3, 1-(4-(2-(bis(4-methoxyphenyl)(phenyl)methoxy)ethyl)phenethyl)-4-(4-bromophenyl)-1H-1,2,3-triazole], the remaining activity at 10 µM in assay [4] (24 h, HT-29, dose 10 µM) turned out to be 101 ± 2%; in assay [4] (MCF7, 24 h, MCF-7, dose 10 µM) it was 52 ± 2%. The remaining activity at 25 µM is 111 ± 4% in assay [4] (24 h, HT-29, dose 25 µM) and 58 ± 3% in assay [4] (MCF7, 24 h, MCF-7, dose 25 µM). Moreover, the remaining activity at 50 µM was determined as 90 ± 3% in assay [4] (24 h, HT-29, dose 50 µM) and 69 ± 4% in assay [4] (MCF7, 24 h, MCF-7, dose 50 µM). For the same compound, the “c-Myc localisation (confocal images)” value in assay [1] is “preferentially in the nucleus of the cells”. Further, the “% PD-L1 gene expression” value in assay [2] was 33 ± 10%. The remaining activity at 100 µM stood at 58 ± 10% in assay [3] (A549, A-549, 100 µM); 47 ± 1% in assay [3] (HT-29, 100 µM); 108 ± 13% in assay [3] (MCF7, MCF-7, 100 µM). Moreover, the “% c-Myc” value was found to be 109 ± 9% in assay [5] (HT-29, dose 10 µM); 100 ± 3% in assay [5] (HT-29, dose 25 µM); 88 ± 5% in assay [5] (HT-29, dose 50 µM); 56 ± 5% in assay [5] (MCF-7, dose 10 µM); 62 ± 5% in assay [5] (MCF-7, dose 25 µM); 75 ± 9% in assay [5] (MCF-7, dose 50 µM).
Turning to `Cc1c(COc2ccc(CN3CCCCC3C(=O)O)cc2Br)cccc1-c1ccccc1` (centres unmarked) [BMS-8, reference compound], in assay [1], the “c-Myc localisation (confocal images)” value is given as “not altered”. For the same compound, the “% PD-L1 gene expression” value in assay [2] came out at 31 ± 12%. The remaining activity at 100 µM amounted to 70 ± 8% in assay [3] (A549, A-549, 100 µM); 68 ± 10% in assay [3] (HT-29, 100 µM); 77 ± 3% in assay [3] (MCF7, MCF-7, 100 µM).
The corresponding values for `COc1ccc(C(OCCc2ccc(CCn3cc(-c4ccccc4Br)nn3)cc2)(c2ccccc2)c2ccc(OC)cc2)cc1` [Compound 7, 1-(4-(2-(bis(4-methoxyphenyl)(phenyl)methoxy)ethyl)phenethyl)-4-(2-bromophenyl)-1H-1,2,3-triazole] are “aggregated in the nucleus of the cells”, 36 ± 9%, 86 ± 20%, 45 ± 7% and 80 ± 4%.
